Test results taken from PMC9052855 (RSC Advances, 2020).

Key:
[1] = molecular target: T1, jack bean urease (Canavalia ensiformis, UniProt P07374); experiment: % urease inhibition assay and IC50; type: biochemical
[2] = molecular target: T1, jack bean urease; experiment: urease enzyme kinetics study; type: biochemical

T1 sequence (P07374 whole entry, looked up): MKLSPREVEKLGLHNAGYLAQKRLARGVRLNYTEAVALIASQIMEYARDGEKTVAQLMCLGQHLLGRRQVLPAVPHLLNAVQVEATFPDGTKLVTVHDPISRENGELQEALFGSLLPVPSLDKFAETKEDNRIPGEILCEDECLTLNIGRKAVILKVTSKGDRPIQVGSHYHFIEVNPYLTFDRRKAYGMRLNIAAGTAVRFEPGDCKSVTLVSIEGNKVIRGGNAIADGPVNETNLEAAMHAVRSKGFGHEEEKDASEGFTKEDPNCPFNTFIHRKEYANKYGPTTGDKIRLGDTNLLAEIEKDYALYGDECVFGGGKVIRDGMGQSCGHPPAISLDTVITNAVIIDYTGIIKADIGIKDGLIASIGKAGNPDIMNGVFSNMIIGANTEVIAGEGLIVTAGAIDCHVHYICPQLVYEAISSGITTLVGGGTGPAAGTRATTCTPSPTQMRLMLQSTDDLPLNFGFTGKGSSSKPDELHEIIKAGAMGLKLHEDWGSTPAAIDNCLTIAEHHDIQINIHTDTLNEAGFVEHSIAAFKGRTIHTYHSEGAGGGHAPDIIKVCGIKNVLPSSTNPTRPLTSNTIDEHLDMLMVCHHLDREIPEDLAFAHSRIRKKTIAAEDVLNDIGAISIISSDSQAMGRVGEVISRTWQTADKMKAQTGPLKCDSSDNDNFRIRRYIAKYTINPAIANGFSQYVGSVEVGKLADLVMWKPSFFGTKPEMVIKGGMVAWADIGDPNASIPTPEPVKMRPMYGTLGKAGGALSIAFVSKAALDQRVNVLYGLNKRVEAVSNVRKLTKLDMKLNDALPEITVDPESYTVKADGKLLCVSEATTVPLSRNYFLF

For NC(N)=S [Thiourea, thiourea], the “% inhibition” value ([1]; concentration not given) was 92.3%, the IC50 ([1]; read-out: IC50 (μM), mean ± SEM, triplicate, mean ± SEM) was 22.6 ± 0.23 µM and the Mode of inhibition ([2]; Lineweaver–Burk plots, inhibitor 0–20 μM, urea 0.5–4.0 mM) was “Competitive”. The Ki ([2]; calculated from secondary replot (Lineweaver–Burk)) was 18.2 µM and the “Vmax (app)” value ([2]; maximum velocity of enzymatic activity at 20 μM inhibitor concentration) was 18.61 µM/min.
